From patent publication US8466132B2, “Substituted tetracycline compounds” (Paratek Pharmaceuticals, Inc., priority 2004, dated 2013)

Experiments:
Assay type in all cases: cell-based
in vitro = assay: in vitro
Procedure: COS-1 and CHO-K1 cell suspensions were prepared, seeded into 96-well tissue culture treated black-walled microtiter plates (density determined by cell line), and incubated overnight at 37° C., in 5% CO2 and approximately 95% humidity. The following day, serial dilutions of drug were prepared under sterile conditions and transferred to cell plates. Cell/Drug plates were incubated under the above conditions for 24 hours. Following the incubation period, media/drug was aspirated and 50 μL of Resazurin (0.042 mg/ml in PBS w/Ca and Mg) was added. The plates were then incubated under the above conditions for 2 hours and then in the dark at room temperature for an additional 30 minutes. Fluorescence measurements were taken (excitation 535 nm, emission 590 nm). The IC50 (concentration of drug causing 50% growth inhibition) was then calculated.

S. aureus RN450 = assay: In vitro minimum inhibitory concentration (MIC) assay, S. aureus; set-up: key: Compounds which showed superior inhibition of S. aureus, S. pseumoniae and E. coli are indicated by “***,”; compounds which showed very good or good inhibition of S. aureus, S. pseumoniae and E. coli are indicated by “**” or “*” respectively; compounds which showed very good or good inhibition of S. aureus, S. pseumoniae and E. coli are indicated by “**” or “*” respectively; details: broth microdilution in CAMHB, 35° C., approximately 18 hour
Procedure: (§1) The following assay is used to determine the efficacy of the tetracycline compounds against common bacteria. 2 mg of each compound is dissolved in 100 μl of DMSO. The solution is then added to cation-adjusted Mueller Hinton broth (CAMHB), which results in a final compound concentration of 200 μg per ml. The tetracycline compound solutions are diluted to 50 μL volumes, with a test compound concentration of 0.098 μg/ml. Optical density (OD) determinations are made from fresh log-phase broth cultures of the test strains. Dilutions are made to achieve a final cell density of 1×10^6 CFU/ml. At OD=1, cell densities for different genera should be approximately:
(§2) 50 μl of the cell suspensions are added to each well of microtiter plates. The final cell density should be approximately 5×10^5 CFU/ml. These plates are incubated at 35° C. in an ambient air incubator for approximately 18 hour. The plates are read with a microplate reader and are visually inspected when necessary. The MIC is defined as the lowest concentration of the tetracycline compound that inhibits growth.
(§3) Table 3 gives the MIC (μg/mL) of selected substituted tetracycline compounds against S. aureus, S. pseuimoniae, and E. coli.

S. pneumoniae 157E = assay: In vitro minimum inhibitory concentration (MIC) assay, S. pneumoniae; set-up: key: Compounds which showed superior inhibition of S. aureus, S. pseumoniae and E. coli are indicated by “***,”; compounds which showed very good or good inhibition of S. aureus, S. pseumoniae and E. coli are indicated by “**” or “*” respectively; compounds which showed very good or good inhibition of S. aureus, S. pseumoniae and E. coli are indicated by “**” or “*” respectively; details: broth microdilution in CAMHB, 35° C., approximately 18 hour
Procedure: as §1, §2, §3

E. coli MG 1655 = assay: In vitro minimum inhibitory concentration (MIC) assay, E. coli; set-up: key: Compounds which showed superior inhibition of S. aureus, S. pseumoniae and E. coli are indicated by “***,”; compounds which showed very good or good inhibition of S. aureus, S. pseumoniae and E. coli are indicated by “**” or “*” respectively; compounds which showed very good or good inhibition of S. aureus, S. pseumoniae and E. coli are indicated by “**” or “*” respectively; details: broth microdilution in CAMHB, 35° C., approximately 18 hour
Procedure: as §1, §2, §3

Row | Compound | IC50 at 24 h (in vitro) [µg/mL] | Median MIC for S. aureus RN450 (S. aureus RN450) | Median MIC for S. pneumoniae 157E (S. pneumoniae 157E) | Median MIC for E. coli MG 1655 (E. coli MG 1655)
1 | C[C@H]1c2cccc(O)c2C(=O)C2=C(O)[C@]3(O)C(=O)C(C(N)=O)=C(O)[C@@H](N(C)C)[C@@H]3[C@@H](O)[C@@H]21 [doxycycline, Doxycycline] | > 25 | – | – | –
2 | COC(=O)CNC(=O)c1cc(N(C)C)c2c(c1O)C(=O)C1=C(O)[C@]3(O)C(=O)C(C(N)=O)=C(O)[C@@H](N(C)C)[C@@H]3C[C@@H]1C2 | – | * | * | *
3 | CN(C)c1cc(C(=O)NCCO)c(O)c2c1C[C@H]1C[C@H]3[C@H](N(C)C)C(O)=C(C(N)=O)C(=O)[C@@]3(O)C(O)=C1C2=O | – | * | * | *
4 | CN(C)c1cc(-c2cncnc2)c(O)c2c1C[C@H]1C[C@H]3[C@H](N(C)C)C(O)=C(C(N)=O)C(=O)[C@@]3(O)C(O)=C1C2=O | – | *** | *** | *
5 | CN(C)c1cc(C(=O)NC(C)(C)C)c(O)c2c1C[C@H]1C[C@H]3[C@H](N(C)C)C(O)=C(C(N)=O)C(=O)[C@@]3(O)C(O)=C1C2=O | – | ** | ** | *
6 | CN(C)c1cc(-c2cnccn2)c(O)c2c1C[C@H]1C[C@H]3[C@H](N(C)C)C(O)=C(C(N)=O)C(=O)[C@@]3(O)C(O)=C1C2=O | – | *** | *** | *
7 | CN(C)c1ccc(O)c2c1C[C@H]1C[C@H]3[C@H](N(C)C)C(O)=C(C(N)=O)C(=O)[C@@]3(O)C(O)=C1C2=O [minocycline, Minocycline] | > 25 | – | – | –
8 | CN(C)c1ccc(-c2cc(N(C)C)c3c(c2O)C(=O)C2=C(O)[C@]4(O)C(=O)C(C(N)=O)=C(O)[C@@H](N(C)C)[C@@H]4C[C@@H]2C3)cc1 | – | *** | *** | *
9 | CN(C)c1cc(C(=O)N2CCCC2)c(O)c2c1C[C@H]1C[C@H]3[C@H](N(C)C)C(O)=C(C(N)=O)C(=O)[C@@]3(O)C(O)=C1C2=O | – | * | * | *
10 | CN(C)c1cc(-c2ccc(C(=O)O)s2)c(O)c2c1C[C@H]1C[C@H]3[C@H](N(C)C)C(O)=C(C(N)=O)C(=O)[C@@]3(O)C(O)=C1C2=O | – | * | * | *
11 | CCONC(=O)c1cc(N(C)C)c2c(c1O)C(=O)C1=C(O)[C@]3(O)C(=O)C(C(N)=O)=C(O)[C@@H](N(C)C)[C@@H]3C[C@@H]1C2 | – | * | *** | *
12 | CN(C)c1cc(C(=O)N2CCCCCC2)c(O)c2c1C[C@H]1C[C@H]3[C@H](N(C)C)C(O)=C(C(N)=O)C(=O)[C@@]3(O)C(O)=C1C2=O | – | ** | * | *
13 | CONC(=O)c1cc(N(C)C)c2c(c1O)C(=O)C1=C(O)[C@]3(O)C(=O)C(C(N)=O)=C(O)[C@@H](N(C)C)[C@@H]3C[C@@H]1C2 | – | * | * | *
14 | CN(C)c1cc(-c2ccc(C#N)nc2)c(O)c2c1C[C@H]1C[C@H]3[C@H](N(C)C)C(O)=C(C(N)=O)C(=O)[C@@]3(O)C(O)=C1C2=O | – | *** | *** | *
15 | CN(C)c1cc(C(=O)N2CCCCC2)c(O)c2c1C[C@H]1C[C@H]3[C@H](N(C)C)C(O)=C(C(N)=O)C(=O)[C@@]3(O)C(O)=C1C2=O | – | * | * | *
16 | CC(=O)NCCNC(=O)c1cc(N(C)C)c2c(c1O)C(=O)C1=C(O)[C@]3(O)C(=O)C(C(N)=O)=C(O)[C@@H](N(C)C)[C@@H]3C[C@@H]1C2 | – | * | * | *
17 | CC(=O)c1cccc(-c2cc(N(C)C)c3c(c2O)C(=O)C2=C(O)[C@]4(O)C(=O)C(C(N)=O)=C(O)[C@@H](N(C)C)[C@@H]4C[C@@H]2C3)c1 | – | *** | *** | *
18 | CN(C)c1cc(C(N)=O)c(O)c2c1C[C@H]1C[C@H]3[C@H](N(C)C)C(O)=C(C(N)=O)C(=O)[C@@]3(O)C(O)=C1C2=O | – | * | * | *
19 | CCCCNC(=O)c1cc(N(C)C)c2c(c1O)C(=O)C1=C(O)[C@]3(O)C(=O)C(C(N)=O)=C(O)[C@@H](N(C)C)[C@@H]3C[C@@H]1C2 | – | * | * | *
20 | CCCN(CC)C(=O)c1cc(N(C)C)c2c(c1O)C(=O)C1=C(O)[C@]3(O)C(=O)C(C(N)=O)=C(O)[C@@H](N(C)C)[C@@H]3C[C@@H]1C2 | – | * | * | *
